One assay deals with DGKα-YFP in Jurkat cells (Homo sapiens (Human), UniProt P23743). Description: In vitro DGKα translocation assay. To be noted: 1 hour at 37° C., top concentration 10 μM, read-out: DGKalpha Translocation EC50. The format is cell-based. The text has this: Jurkat cells were transduced with lentiviral constructs overexpressing DGKα-YFP (N-terminal tagged), selected by puromycin, and were FACs sorted to establish stable lines expressing each isoform (Jurkat-DGKα-YFP=BXA-212700-01-001, Jurkat-DGKz-YFP=BXA-212701-01-001). Cell lines were maintained in growth media (RPMI supplemented with 10% FBS and pen/strep). All translocation assays were run in assay media (RPMI supplemented with 10% FBS and no antibiotics).
For translocation assays cells were plated onto Perkin Elmer CellCarrier-384 Ultra Microplates (Perkin Elmer cat #6057500) at a density of 30,000 cells/well, in a volume of 40 μL of assay media. Compounds were then transferred to the cells by an Echo Acoustic Liquid Handler (Echo 655). […] Treated cells were then incubated at 37° C. for 1 hour. Cells were then fixed with 4% formaldehyde (Thermo cat #28906) for 15 minutes, centrifuged briefly to increase cell retention (250 rpm for 5 minutes), and then washed 3× with 50 μL PBS. Cells were then stained with Hoechst, and washed 2× with 50 ul PBS. Next, 50 μL PBS was added to each well, plates were sealed, and plates were imaged on an Opera Phenix High Content screening system. Imaging was done with the 40× water objective. The YFP channel was set at 100% power for […], 10 regions/well were imaged and analyzed. Data analysis was done with Columbus Image Analysis software (Perk-in Elmer).

Assay [1] addresses Near full length human DGKα(S9-S727) (Homo sapiens (Human), UniProt P23743). Description: DGKα (Near Full Length) ADP Glo assay. The format is biochemical. To be noted: extruded liposomes 5% or 10% DAG, 150 μM ATP, 5 nM enzyme; read-out: Near Full Length DGKalpha ADPGLO IC50. As for the experimental part:
The reactions were carried out at 150 μM ATP.
Luminescence was recorded using an EnVision microplate reader.
In general terms: In ADP-Glo the light output rises with the ADP produced.

Another assay deals with Full length human DGKα (Homo sapiens (Human), UniProt P23743).

The text below walks through data of patent publication US20260049068A1, “Substituted Tetrazolyl Compounds Useful as T Cell Activators” (BRISTOL-MYERS SQUIBB COMPANY, priority 2022, published 2026).

What is called EC50 is the concentration that produces a half-maximal response. A word on the IC50: it is the point on the concentration scale where inhibition reaches its midpoint.

Chain of Near full length human DGKα(S9-S727) (P23743 9-727): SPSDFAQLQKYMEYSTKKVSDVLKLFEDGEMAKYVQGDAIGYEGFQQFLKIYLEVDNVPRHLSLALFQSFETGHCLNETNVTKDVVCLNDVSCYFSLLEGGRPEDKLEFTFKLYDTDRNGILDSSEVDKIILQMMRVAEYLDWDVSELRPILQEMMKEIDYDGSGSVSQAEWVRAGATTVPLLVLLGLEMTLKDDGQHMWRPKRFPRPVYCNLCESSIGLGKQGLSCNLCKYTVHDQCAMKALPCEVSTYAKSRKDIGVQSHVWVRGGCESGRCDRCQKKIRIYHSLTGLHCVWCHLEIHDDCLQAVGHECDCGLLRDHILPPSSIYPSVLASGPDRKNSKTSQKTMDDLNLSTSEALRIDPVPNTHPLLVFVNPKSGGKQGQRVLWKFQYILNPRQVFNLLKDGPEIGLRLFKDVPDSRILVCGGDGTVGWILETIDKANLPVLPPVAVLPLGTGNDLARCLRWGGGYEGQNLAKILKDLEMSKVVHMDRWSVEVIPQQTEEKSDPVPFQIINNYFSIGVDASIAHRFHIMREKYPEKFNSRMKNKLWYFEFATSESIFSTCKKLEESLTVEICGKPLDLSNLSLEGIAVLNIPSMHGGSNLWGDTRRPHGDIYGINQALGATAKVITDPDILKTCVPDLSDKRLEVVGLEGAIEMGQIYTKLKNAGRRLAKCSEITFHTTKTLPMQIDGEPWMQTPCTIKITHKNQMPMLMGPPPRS
Chain of DGKα-YFP in Jurkat cells (P23743 whole entry, canonical isoform): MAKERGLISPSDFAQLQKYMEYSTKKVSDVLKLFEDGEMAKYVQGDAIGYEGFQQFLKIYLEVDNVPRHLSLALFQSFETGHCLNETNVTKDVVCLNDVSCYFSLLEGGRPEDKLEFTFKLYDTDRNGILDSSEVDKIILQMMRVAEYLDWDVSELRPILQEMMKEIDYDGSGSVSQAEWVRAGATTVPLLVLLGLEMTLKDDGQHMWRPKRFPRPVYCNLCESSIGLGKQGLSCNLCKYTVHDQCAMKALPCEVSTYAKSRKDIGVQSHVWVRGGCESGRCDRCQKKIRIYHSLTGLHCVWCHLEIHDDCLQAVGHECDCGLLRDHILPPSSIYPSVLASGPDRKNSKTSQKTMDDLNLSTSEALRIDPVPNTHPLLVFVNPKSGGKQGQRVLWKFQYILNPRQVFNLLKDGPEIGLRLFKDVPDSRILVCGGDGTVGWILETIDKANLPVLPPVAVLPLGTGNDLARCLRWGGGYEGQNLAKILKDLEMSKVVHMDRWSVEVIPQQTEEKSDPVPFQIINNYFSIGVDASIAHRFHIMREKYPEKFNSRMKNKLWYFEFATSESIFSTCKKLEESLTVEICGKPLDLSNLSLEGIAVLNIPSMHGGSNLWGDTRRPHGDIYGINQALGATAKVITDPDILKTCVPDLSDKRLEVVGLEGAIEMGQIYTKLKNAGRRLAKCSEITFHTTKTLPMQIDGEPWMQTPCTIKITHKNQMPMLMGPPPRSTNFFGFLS
Chain of Full length human DGKα (P23743 other isoform, or with tags, fused parts or gaps): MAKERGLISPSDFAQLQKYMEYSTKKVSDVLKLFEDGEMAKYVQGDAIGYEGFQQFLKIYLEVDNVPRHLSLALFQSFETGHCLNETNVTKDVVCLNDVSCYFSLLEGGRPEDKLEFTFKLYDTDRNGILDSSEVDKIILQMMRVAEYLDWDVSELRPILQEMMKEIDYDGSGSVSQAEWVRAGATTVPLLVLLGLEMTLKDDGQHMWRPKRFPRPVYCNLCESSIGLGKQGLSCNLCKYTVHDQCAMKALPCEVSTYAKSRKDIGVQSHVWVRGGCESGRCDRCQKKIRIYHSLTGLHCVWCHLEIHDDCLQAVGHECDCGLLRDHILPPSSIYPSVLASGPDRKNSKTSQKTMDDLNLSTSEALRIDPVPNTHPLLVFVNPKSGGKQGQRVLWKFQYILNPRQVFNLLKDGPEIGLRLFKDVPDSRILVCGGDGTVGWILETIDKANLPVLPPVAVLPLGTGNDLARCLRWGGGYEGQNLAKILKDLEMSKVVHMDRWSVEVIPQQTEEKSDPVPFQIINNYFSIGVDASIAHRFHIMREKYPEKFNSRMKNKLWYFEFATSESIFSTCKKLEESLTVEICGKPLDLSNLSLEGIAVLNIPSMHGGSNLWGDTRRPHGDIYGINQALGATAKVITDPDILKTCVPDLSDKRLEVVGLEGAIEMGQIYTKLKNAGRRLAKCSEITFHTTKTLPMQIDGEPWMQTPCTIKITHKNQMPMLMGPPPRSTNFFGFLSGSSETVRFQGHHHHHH

With `CC1CCC(N(C)Cc2nnnn2-c2cccc([N+](=O)[O-])c2)CC1` (stereo not shown) [Example 2, N,4-dimethyl-N-((1-(3-nitrophenyl)-1H-tetrazol-5-yl)methyl)cyclohexan-1-amine], the EC50 on DGKα-YFP in Jurkat cells came to 0.3 µM.

For the molecule `CN(Cc1nnnn1-c1ccc(C(F)(F)F)c(C#N)c1)C1CCCCC1` [Example 4, 5-(5-((cyclohexyl(methyl)amino)methyl)-1H-tetrazol-1-yl)-2-(trifluoromethyl)benzonitrile], the IC50 was found to be 0.28 µM in assay [1] and 0.027 µM at Full length human DGKα. At DGKα-YFP in Jurkat cells, the EC50 was found to be 0.82 µM.

`CCCCN(Cc1nnnn1-c1ccc(Cl)c(C#N)c1)C1CCCCC1` [Example 5, 5-(5-((butyl(cyclohexyl)amino)methyl)-1H-tetrazol-1-yl)-2-chlorobenzonitrile]: the IC50 in assay [1] worked out at 1.4 µM; against Full length human DGKα it was 1.1 µM. Also, the EC50 at DGKα-YFP in Jurkat cells was 1.2 µM.

As for `C=CCN(Cc1nnnn1-c1ccc(Cl)c(C#N)c1)C1CCCCC1` [Example 6, 5-(5-((allyl(cyclohexyl)amino)methyl)-1H-tetrazol-1-yl)-2-chlorobenzonitrile], the results for the IC50 (in assay [1]; against Full length human DGKα) were 0.1 µM and 0.11 µM, respectively. Besides, the EC50 on DGKα-YFP in Jurkat cells is 0.19 µM.

On to `N#Cc1cc(-n2nnnc2CN(CCO)C2CCCCC2)ccc1Cl` [Example 7, 2-chloro-5-(5-((cyclohexyl(2-hydroxyethyl)amino)methyl)-1H-tetrazol-1-yl)benzonitrile], for which the IC50 turned out to be 3.4 µM in assay [1] and 4.7 µM against Full length human DGKα. For the same molecule, the EC50 at DGKα-YFP in Jurkat cells is over 10 µM.

As to `CCCN(Cc1nnnn1-c1ccc(Cl)c(C#N)c1)C1CCCCC1` [Example 8, 2-chloro-5-(5-((cyclohexyl(propyl)amino)methyl)-1H-tetrazol-1-yl)benzonitrile], the IC50 in assay [1] worked out at 2.1 µM; at Full length human DGKα it was 1.5 µM. Also, on DGKα-YFP in Jurkat cells, the EC50 came to 0.35 µM.

`CC(C)CN(C)Cc1nnnn1-c1ccc(Cl)c(C#N)c1` [Example 9, 2-chloro-5-(5-((isobutyl(methyl)amino)methyl)-1H-tetrazol-1-yl)benzonitrile]: the IC50 in assay [1] came to 3.2 µM; on Full length human DGKα, 5.3 µM. In addition, the EC50 at DGKα-YFP in Jurkat cells came to 1.2 µM.

In the case of `N#Cc1cc(-n2nnnc2CN(CC2CC2)C2CCCCC2)ccc1Cl` [Example 10, 2-chloro-5-(5-((cyclohexyl(cyclopropylmethyl)amino)methyl)-1H-tetrazol-1-yl)benzonitrile], the IC50 was 0.24 µM in assay [1] and 0.25 µM on Full length human DGKα. On DGKα-YFP in Jurkat cells, the EC50 was 0.63 µM.

On to `CC(C)N(C)Cc1nnnn1-c1ccc(Cl)c(C#N)c1` [Example 11, 2-chloro-5-(5-((isopropyl(methyl)amino)methyl)-1H-tetrazol-1-yl)benzonitrile], for which the IC50 was 8.6 µM in assay [1] and 8.8 µM on Full length human DGKα. Besides, the EC50 at DGKα-YFP in Jurkat cells was over 10 µM.

With `CC(C)N(Cc1nnnn1-c1ccc(Cl)c(C#N)c1)C1CCCCC1` [Example 12, 2-chloro-5-(5-((cyclohexyl(isopropyl)amino)methyl)-1H-tetrazol-1-yl)benzonitrile], the IC50 worked out at 11 µM in assay [1] and 7.9 µM against Full length human DGKα. Further, the concentration giving a half-maximal response (EC50) at DGKα-YFP in Jurkat cells was 1.7 µM.

For `CCN(Cc1nnnn1-c1ccc(Cl)c(C#N)c1)C1CCCCC1` [Example 13, 2-chloro-5-(5-((cyclohexyl(ethyl)amino)methyl)-1H-tetrazol-1-yl)benzonitrile], the values for the IC50 (in assay [1]; at Full length human DGKα) were 0.08 µM and 0.09 µM, respectively. In addition, the EC50 on DGKα-YFP in Jurkat cells is 0.12 µM.

`CN(Cc1nnnn1-c1ccc(Cl)c(C#N)n1)C1CCCCC1` [Example 14, 3-chloro-6-(5-((cyclohexyl(methyl)amino)methyl)-1H-tetrazol-1-yl)picolinonitrile]: the IC50 amounted to 1.1 µM in assay [1] and 2 µM against Full length human DGKα. Besides, the EC50 on DGKα-YFP in Jurkat cells came out at 1.8 µM.

`N#Cc1nc(-n2nnnc2CN(CC2CC2)C2CCCCC2)ccc1Cl` [Example 15, 3-chloro-6-(5-((cyclohexyl (cyclopropylmethyl)amino)methyl)-1H-tetrazol-1-yl) picolinonitrile]: the IC50 was 4.3 µM in assay [1] and 3.1 µM against Full length human DGKα. Besides, the 50% effective concentration (EC50) on DGKα-YFP in Jurkat cells worked out at 2.1 µM.

On to `CCN(Cc1nnnn1-c1ccc(Cl)c(C#N)n1)C1CCCCC1` [Example 16, 3-chloro-6-(5-((cyclohexyl(ethyl)amino)methyl)-1H-tetrazol-1-yl)picolinonitrile], for which the results for the IC50 (in assay [1]; against Full length human DGKα) were 2.6 µM and 2.7 µM, respectively. Besides, the EC50 at DGKα-YFP in Jurkat cells is over 10 µM.

As for `C=CCN(Cc1nnnn1-c1ccc(Cl)c(C#N)n1)C1CCCCC1` [Example 17, 6-(5-((allyl (cyclohexyl)amino)methyl)-1H-tetrazol-1-yl)-3-chloropicolinonitrile], the EC50 at DGKα-YFP in Jurkat cells was 0.47 µM.

Consider `CN(Cc1nnnn1-c1cccc(C(F)(F)F)c1)C1CCCCC1` [Example 18, N-methyl-N-((1-(3-(trifluoromethyl)phenyl)-1H-tetrazol-5-yl)methyl) cyclohexanamine], for which the IC50 in assay [1] is 11 µM; against Full length human DGKα, 9.7 µM. For the same molecule, the EC50 on DGKα-YFP in Jurkat cells was over 5 µM.

As to `CN(Cc1nnnn1-c1cccc(F)c1)C1CCCCC1` [Example 19, N-((1-(3-fluorophenyl)-1H-tetrazol-5-yl)methyl)-N-methylcyclohexanamine], the IC50 turned out to be 5.8 µM in assay [1] and 5.2 µM against Full length human DGKα. In addition, the EC50 on DGKα-YFP in Jurkat cells was over 5 µM.

In the case of `CN(Cc1nnnn1-c1ccc(F)c(C#N)c1)C1CCCCC1` [Example 21, 5-(5-((cyclohexyl (methyl)amino)methyl)-1H-tetrazol-1-yl)-2-fluorobenzonitrile], the IC50 in assay [1] was 3.1 µM; at Full length human DGKα, 3.7 µM. Also, on DGKα-YFP in Jurkat cells, the EC50 was found to be 1.2 µM.

`CN(Cc1nnnn1-c1ccc(C(F)(F)F)nc1)C1CCCCC1` [Example 23, N-methyl-N-((1-(6-(trifluormethyl)pyridin-3-yl)-1H-tetrazol-5-yl)methyl) cyclohexanamine]: the IC50 turned out to be 3.6 µM in assay [1] and 6.5 µM on Full length human DGKα. On DGKα-YFP in Jurkat cells, the EC50 was over 5 µM.

Consider `COc1ccc(-n2nnnc2CN(C)C2CCCCC2)cc1C#N` [Example 24, 5-(5-((cyclohexyl(methyl)amino)methyl)-1H-tetrazol-1-yl)-2-methoxybenzonitrile], for which the IC50 in assay [1] turned out to be 0.86 µM; against Full length human DGKα, 0.9 µM. In addition, the EC50 at DGKα-YFP in Jurkat cells came out at 1.7 µM.

With `Cc1ccc(-n2nnnc2CN(C)C2CCCCC2)cc1C#N` [Example 25, 5-(5-((cyclohexyl(methyl)amino)methyl)-1H-tetrazol-1-yl)-2-methylbenzonitrile], the IC50 was determined as 0.41 µM in assay [1] and 0.14 µM against Full length human DGKα. In addition, the EC50 at DGKα-YFP in Jurkat cells turned out to be 0.35 µM.

Consider `CN(Cc1nnnn1-c1cc(C#N)cc([N+](=O)[O-])c1)C1CCCCC1` [Example 27, 3-(5-((cyclohexyl(methyl)amino)methyl)-1H-tetrazol-1-yl)-5-nitrobenzonitrile], for which the EC50 at DGKα-YFP in Jurkat cells was 0.49 µM.

In the case of `CN(Cc1nnnn1-c1ccc(Cl)cc1)C1CCCCC1` [Example 29, N-((1-(4-chlorophenyl)-1H-tetrazol-5-yl)methyl)-N-methylcyclohexanamine], the IC50 in assay [1] was determined as 1.7 µM; against Full length human DGKα it was 3.5 µM. For the same molecule, on DGKα-YFP in Jurkat cells, the EC50 came to 0.57 µM.

Turning to `CN(Cc1nnnn1-c1ccc(Cl)cc1C#N)C1CCCCC1` [Example 30, 5-chloro-2-(5-((cyclohexyl(methyl)amino)methyl)-1H-tetrazol-1-yl)benzonitrile], the EC50 on DGKα-YFP in Jurkat cells was over 10 µM.

For `CCOC(=O)C1CCC(N(Cc2nnnn2-c2ccc(Cl)c(C#N)n2)C2CC2)CC1` (stereo not shown) [Example 56, ethyl 4-(((1-(5-chloro-6-cyanopyridin-2-yl)-1H-tetrazol-5-yl)methyl)(cyclopropyl)amino) cyclohexane-1-carboxylate], inhibition against Full length human DGKα was half-maximal at 11 µM (IC50).

`C[C@]1(O)CC[C@@H](N(Cc2nnnn2-c2ccc(Cl)c(C#N)n2)C2CC2)CC1` [Example 59, 3-chloro-6-(5-((cyclopropyl((1s,4s)-4-hydroxy-4-methylcyclohexyl)amino)methyl)-1H-tetrazol-1-yl)picolinonitrile]: the IC50 against Full length human DGKα was determined as 180 µM.

Take `CC(C)N(C)Cc1nnnn1-c1ccc(Cl)c(C#N)n1` [Example 60, 3-chloro-6-(5-((isopropyl(methyl)amino)methyl)-1H-tetrazol-1-yl)picolinonitrile]: inhibition at Full length human DGKα was half-maximal at 67 µM (IC50).

For `CC(C)CN(C)Cc1nnnn1-c1ccc(Cl)c(C#N)n1` [Example 61, 3-chloro-6-(5-((isobutyl(methyl)amino)methyl)-1H-tetrazol-1-yl)picolinonitrile], half-maximal inhibition on Full length human DGKα (IC50) required 24 µM.

Molecule `N#Cc1nc(-n2nnnc2CN(CCO)C2CCCCC2)ccc1Cl` [Example 62, 3-chloro-6-(5-((cyclohexyl(2-hydroxyethyl)amino)methyl)-1H-tetrazol-1-v) picolinonitrile] showed an IC50 against Full length human DGKα of 110 µM.

In turn, `CCCCN(Cc1nnnn1-c1ccc(Cl)c(C#N)n1)C1CCCCC1` [Example 63, 6-(5-((butyl(cyclohexyl)amino)methyl)-1H-tetrazol-1-yl)-3-chloropicolinonitrile] came in with a half-maximal inhibitory concentration (IC50) against Full length human DGKα of 15 µM.
